In US12415810B2, “2'-isopropyl-spiro (3,3'-pyrrolidine oxindole) liver X receptor regulator, preparation method therefor, and use thereof” (SHENZHEN CELL INSPIRE PHARMACEUTICAL DEVELOPMENT CO., LTD., priority 2019, dated 2025):
Like-named read-outs stand apart in the source and are kept apart here.

Tests used:
[1] = tested on: liver X receptors; test: Liver X receptor activity test, (subtype not named); assay type: cell-based, human; conditions: for inverse activation of liver X receptors (in words): summary of Table 1; for activation of liver X receptors (in words): summary of Table 2
Procedure: (§1) (1) Cell culture: human embryonic kidney cells (HEK293T cells) were cultured in DMEM (high glucose) medium containing 10% fetal bovine serum and 1% penicillin-streptomycin under conditions of 37° C. and 5% CO2.
(§2) (2) Transfection: HEK293T cells were seeded in a 96-well plate with a cell density of 2×10^4 cells/well. After 24 hours, the cells were transfected according to instructions of Lipofectamine™ 3000 reagent. The specific steps of transfection were as follows: • (1) adding 15 μL of L3000 reagent to 500 μL of DMEM (high sugar) medium, and vortex oscillating for 2 seconds; • (2) mixing 6.5 μg of pGL3/(DR-4)-c-fos-FF-luc plasmid, 0.13 μg of pCMV/Renilla-luc plasmid, 1.3 μg of pSG5/hLXRα (or pSG5/hLXRβ plasmid), 1.3 μg of pSG5/hRXRα plasmid, and 19 μL of P3000 reagent in 500 μL of DMEM (high sugar) medium; • (3) adding the plasmid mixture to a liposome mixture and standing by at room temperature for 20 minutes; and • (4) adding 10 μL of liposome-DNA solution to each well of the 96-well plate, and gently shaking the 96-well plate to mix well.
(§3) (3) Drug intervention: after 5 hours of transfection, the compounds to be tested were added, and the plate was placed in an incubator to continue culturing for 20 hours.
(§4) (4) Detection: dual-luciferase reporter gene system was used for detection. The specific steps of detection were as follows: • (1) aspirating the original medium in the 96-well plate, adding cell lysate to the 96-well plate at 20 μL/well, and quickly shaking the plate at room temperature for 20 minutes; • (2) adding samples to a 384-well plate at 20 μL/well; • (3) adding firefly luciferase substrate to each well at 10 μL/well, and measuring chemiluminescence after 7 seconds; and • (4) adding Renilla luciferase substrate to the same sample well at 100 μL/well, and measuring chemiluminescence after 7 seconds.
(§5) Result processing: the results were analyzed using Renilla luciferase activity to correct the firefly luciferase activity.

[2] = tested on: SREBP-1c, ACC, FAS and SCD-1; test: mRNA content of LXR downstream genes by qPCR in 3T3-L1 cells; assay type: cell-based, mouse; conditions: day 6 of differentiation
Procedure: (§6) HepG2 cells were seeded in a 6-well plate with a cell density of 8×10^5 cells/well and incubated for 24 hours. The compounds to be tested were added and acted for 24 hours, and then the cells were harvested. The 3T3-L1 cells were harvested on day 6 of differentiation. The cells were washed twice with PBS, total RNA was extracted with RNAiso plus reagent, 1 μg of total RNA was reverse transcribed into cDNA using ReverTra Ace qPCR RT Master Mix, and PCR amplification was performed using SYBR Green Realtime PCR Master Mix.

[3] = tested on: Triton WR-1339-induced hyperlipidemia mice; test: Lipid-lowering activity in Triton WR-1339-induced hyperlipidemia mice; assay type: in vivo, C57BL/6J mice; conditions: 100 mg/kg intragastric for 8 days
Procedure: 6-week-old SPF female C57BL/6J mice were purchased from the Experimental Animal Center of Sun Yat-sen University. The mice were randomly divided into 4 groups each including 6 mice, i.e., a normal control group, model a group, a fenofibrate group (100 mg/kg), and a B1 group (100 mg/kg), and intragastric administration was performed for 8 days. 24 hours before the last administration, the normal control group was intramuscularly injected with saline, and the remaining groups were injected with Triton WR-1339 (1500 mg/kg). One hour after the last administration, the eyeballs were removed to collect blood, the mice were executed by cervical dislocation, and the livers were collected. The plasma was allowed to stand for 1 hour, and the supernatant was collected by centrifugation at 4° C. and 3000 rpm. 100 mg of liver was weighed, added with methanol in 3 times the volume of the weighed liver, and homogenized thoroughly. Chloroform was then added in 6 times the volume and vortex oscillated. After centrifuging at 3000 rpm for 10 minutes, the lower chloroform layer was collected, and evaporated naturally overnight in a fume hood. 150 μL of 1% Triton ethanol was added and heated at 65° C. to be fully dissolved. Finally, triglycerides (TG), total cholesterol (TC), low-density lipoprotein cholesterol (LDL-C), and high-density lipoprotein cholesterol (HDL-C) in serum and liver samples were detected.

[4] = tested on: 3T3-L1 cells; test: cells; conditions: Mus musculus, 3T3-L1, 144 h, read-out: IC50 for lowering the triglyceride level in 3T3-L1 cells
Procedure: (1) Cell culture: human liver cancer cells (HepG2 cells) and mouse pre-adipocytes (3T3L1 cells) were cultured in DMEM (high glucose) medium containing 10% fetal bovine serum and 1% penicillin-streptomycin under conditions of 37° C. and 5% CO2.
(3) The steps of differentiation preadipocytes 3T3-L1 were as follows:
Cells were seeded in a 48-well plate, cultured in complete medium until the cells were completely in contact (day 0), and the medium was changed to a differentiation medium I (complete medium supplemented with 2 μg/mL of insulin, 100 ng/mL of dexamethasone, 0.5 mM of 3-isobutyl-1-methylxanthine, and 10 ng/mL of biotin) to culture for 3 days. The blank control group was still continued being cultured with the complete medium. On day 3, the medium was changed to a differentiation medium II (complete medium supplemented with 2 μg/mL of insulin) and culturing was continued for 3 days. On day 6, the cells were harvested for subsequent analysis.
(4) Triglyceride test: the treated cells were harvested, washed twice with icy PBS (0.2 M NaCl, 10 mM Na2HPO4, 3 mM KCl, 2 mM KH2PO4, pH 7.4), breaking the cells with ultrasonic waves, and detecting absorbance at 510 nm using the triglyceride detection kit (Nanjing Jiancheng Bioengineering Institute).

[5] = tested on: SREBP-1c, ACC, FAS and SCD-1; test: mRNA content of LXR downstream genes by qPCR in HepG2 cells; assay type: cell-based, human; conditions: 24 hours
Procedure: as §6

[6] = tested on: HepG2 cells; test: Triglyceride test in HepG2 cells induced by high glucose; assay type: cell-based, human; conditions: concentration of 10 μM, 24 hours
Procedure: (2) HepG2 cells were seeded in a 12-well plate, cultured with DMEM (low sugar) medium and starved for 12 hours. When the cells grow to a density of 70%, the medium was changed to DMEM (high sugar) medium and the compound was added to act for 24 hours.

[7] = biological target: T1, LXRα (Homo sapiens, UniProt Q13133); test: Liver X receptor activity test, dual-luciferase reporter gene in HEK293T cells (pSG5/hLXRα + hRXRα); assay type: cell-based; conditions: for EC50 / LXRα % Agonist effect: agonist activity
T1 construct: expressed in transfected cells; host or cells: HEK293T
T1 sequence (Q13133 1-447): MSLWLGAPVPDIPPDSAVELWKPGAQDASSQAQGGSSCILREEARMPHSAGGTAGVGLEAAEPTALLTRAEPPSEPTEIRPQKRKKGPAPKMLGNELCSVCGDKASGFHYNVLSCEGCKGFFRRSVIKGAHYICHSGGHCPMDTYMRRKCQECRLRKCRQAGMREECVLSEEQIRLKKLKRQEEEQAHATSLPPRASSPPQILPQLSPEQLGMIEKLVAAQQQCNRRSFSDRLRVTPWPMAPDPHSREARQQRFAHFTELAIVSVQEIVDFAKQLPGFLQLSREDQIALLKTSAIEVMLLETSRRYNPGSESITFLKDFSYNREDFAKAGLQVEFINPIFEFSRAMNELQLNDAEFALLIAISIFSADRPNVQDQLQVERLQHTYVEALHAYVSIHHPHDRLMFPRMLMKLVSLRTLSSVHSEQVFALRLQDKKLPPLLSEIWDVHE
T1 sequence (P19793 1-462 partner): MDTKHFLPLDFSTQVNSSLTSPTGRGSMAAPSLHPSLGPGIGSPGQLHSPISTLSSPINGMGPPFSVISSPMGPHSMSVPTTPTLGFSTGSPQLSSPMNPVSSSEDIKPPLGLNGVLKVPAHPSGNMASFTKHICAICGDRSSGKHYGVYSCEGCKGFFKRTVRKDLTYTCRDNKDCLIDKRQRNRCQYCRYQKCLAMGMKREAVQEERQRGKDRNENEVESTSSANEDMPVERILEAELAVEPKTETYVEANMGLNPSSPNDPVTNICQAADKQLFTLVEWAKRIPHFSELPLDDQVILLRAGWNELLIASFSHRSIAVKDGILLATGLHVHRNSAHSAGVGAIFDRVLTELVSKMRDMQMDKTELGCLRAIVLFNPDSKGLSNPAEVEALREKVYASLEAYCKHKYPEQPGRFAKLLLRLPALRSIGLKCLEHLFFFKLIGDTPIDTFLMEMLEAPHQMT
Procedure: as §1, §2, §3, §4, §5

[8] = biological target: T2, LXRβ (Homo sapiens, UniProt P55055); test: Liver X receptor activity test, dual-luciferase reporter gene in HEK293T cells (pSG5/hLXRβ + hRXRα); assay type: cell-based
T2 construct: expressed in transfected cells; host or cells: HEK293T
T2 sequence (P55055 1-460): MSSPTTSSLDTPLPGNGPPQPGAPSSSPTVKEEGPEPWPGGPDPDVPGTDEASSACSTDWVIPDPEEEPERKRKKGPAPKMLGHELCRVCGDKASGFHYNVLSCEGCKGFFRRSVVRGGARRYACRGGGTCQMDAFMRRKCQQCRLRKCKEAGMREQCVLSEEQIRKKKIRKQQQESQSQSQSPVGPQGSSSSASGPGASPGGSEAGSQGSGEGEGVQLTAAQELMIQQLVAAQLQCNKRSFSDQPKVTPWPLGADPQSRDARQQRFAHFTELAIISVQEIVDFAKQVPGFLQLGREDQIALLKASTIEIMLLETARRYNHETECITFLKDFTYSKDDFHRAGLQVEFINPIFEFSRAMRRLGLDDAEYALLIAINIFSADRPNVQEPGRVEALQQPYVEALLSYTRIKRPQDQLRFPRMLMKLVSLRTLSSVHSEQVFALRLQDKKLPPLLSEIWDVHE
T2 sequence (P19793 1-462 partner): T1 sequence (P19793 1-462 partner)
Procedure: as §1, §2, §3, §4, §5

[9] = agonist activity, HEK293T reporter gene
[10] = inverse agonist activity, HEK293T reporter gene

CC(C)[C@H]1N(C(=O)OC(C)(C)C)CC[C@]12C(=O)N(c1cccc(-c3ccc(CO)c(S(C)(=O)=O)c3)c1)c1ccccc12 [Compound 2a-1]
inverse activation of liver X receptors (in words) [1]: can inversely activate liver X receptors
mRNA content of ACC [2]: reduced the mRNA content of SREBP-1c, ACC, FAS and SCD-1 in a concentration-dependent manner
mRNA content of FAS [2]: reduced the mRNA content of SREBP-1c, ACC, FAS and SCD-1 in a concentration-dependent manner
mRNA content of SCD-1 [2]: reduced the mRNA content of SREBP-1c, ACC, FAS and SCD-1 in a concentration-dependent manner
mRNA content of SREBP-1c [2]: reduced the mRNA content of SREBP-1c, ACC, FAS and SCD-1 in a concentration-dependent manner
triglyceride content in the livers of mice ([3]; liver): can reduce the triglyceride content
HDL-C/LDL-C level ([3]; serum): slightly increased
HDL-C/TC ([3]; serum): Neither fenofibrate nor compound 2a-1 had a significant effect
increase in HDL-C level induced by Triton WR-1339 ([3]; serum): significantly inhibit
increase in LDL-C level induced by Triton WR-1339 ([3]; serum): significantly inhibit
increase in TC level induced by Triton WR-1339 ([3]; serum): significantly inhibit
increase in TG level induced by Triton WR-1339 ([3]; serum): significantly inhibit
IC50 [4]: 0.27 ± 0.03 µM
mRNA content of ACC [5]: significantly reduced
mRNA content of FAS [5]: significantly reduced
mRNA content of SCD-1 [5]: significantly reduced
mRNA content of SREBP-1c [5]: significantly reduced
triglyceride accumulation in HepG2 cells induced by high glucose [6]: significantly reduce

CC(C)[C@@H]1N(C(=O)OC(C)(C)C)CC[C@@]12C(=O)N(c1cccc(-c3ccc(CO)c(S(C)(=O)=O)c3)c1)c1ccccc12 [Compound 2a-2]
inverse activation of liver X receptors (in words) [1]: can inversely activate liver X receptors

CC(C)[C@@H]1N(C(=O)OC(C)(C)C)CC[C@@]12C(=O)N(c1cccc(-c3ccc(CO)c(S(C)(=O)=O)c3)c1)c1ccccc12 [Compound 2a]
inverse activation of liver X receptors (in words) [1]: can inversely activate liver X receptors

CC(C)[C@@H]1N(C(=O)C(F)(F)F)CC[C@@]12C(=O)N(c1cccc(-c3ccc(CO)c(S(C)(=O)=O)c3)c1)c1ccccc12 [Compound 2b]
inverse activation of liver X receptors (in words) [1]: can inversely activate liver X receptors

CC(C)[C@@H]1N(C(=O)CC(C)(C)C)CC[C@@]12C(=O)N(c1cccc(-c3ccc(CO)c(S(C)(=O)=O)c3)c1)c1ccccc12 [Compound 2c]
inverse activation of liver X receptors (in words) [1]: can inversely activate liver X receptors

CC(C)[C@@H]1N(C(=O)C(C)(C)C)CC[C@@]12C(=O)N(c1cccc(-c3ccc(CO)c(S(C)(=O)=O)c3)c1)c1ccccc12 [Compound 2d]
inverse activation of liver X receptors (in words) [1]: can inversely activate liver X receptors

CC(C)[C@@H]1N(C(=O)OC(C)(C)C)CC[C@@]12C(=O)N(c1cccc(-c3ccc(C(=O)N(C)C)c(Cl)c3)c1)c1ccccc12 [Compound 3a]
activation of liver X receptors (in words) [1]: can activate liver X receptors
EC50 [7]: 6.92 µM
LXRα % Agonist effect [7]: 53%

CC(C)[C@@H]1N(C(=O)C(C)(C)C)CC[C@@]12C(=O)N(c1cccc(-c3ccc(C(=O)N(C)C)c(Cl)c3)c1)c1ccccc12 [Compound 3b]
EC50 [8, 9]: 3.04 µM
LXRβ % Agonist effect [8, 9]: 50%
activation of liver X receptors (in words) [1]: can activate liver X receptors
EC50 [7]: 3.67 µM
LXRα % Agonist effect [7]: 76%

CC(C)[C@@H]1N(C(=S)NC(C)(C)C)CC[C@@]12C(=O)N(c1cccc(-c3ccc(C(=O)N(C)C)c(Cl)c3)c1)c1ccccc12 [Compound 3c]
activation of liver X receptors (in words) [1]: can activate liver X receptors

CC(C)[C@@H]1N(C(=O)CC(C)(C)C)CC[C@@]12C(=O)N(c1cccc(-c3ccc4ccn(C)c4c3)c1)c1ccccc12 [Compound 4c]
Emax ([8]; HEK-293T, 20 h, inverse agonist activity, HEK293T reporter gene, read-out: LXRβ % Inverse agonist effect): 64%
IC50 [8, 10]: 10.1 µM

O=C(O)Cc1cccc(OCCCN(Cc2cccc(C(F)(F)F)c2Cl)CC(c2ccccc2)c2ccccc2)c1 [GW3965, reference compound]
LXRβ % Agonist effect [8]: 100%
EC50 [8, 9]: 0.21 µM
EC50 [7]: 0.36 µM
LXRα % Agonist effect [7]: 100%

CCOC(=O)c1ccc(CN(Cc2ccc(-c3cccc(S(C)(=O)=O)c3)cc2)S(=O)(=O)c2c(C)cc(C)cc2C)o1 [SR9238, reference compound]
IC50 [8, 10]: 0.1 µM
IC50 ([7]; inverse agonist activity): 0.16 µM
LXRα % Inverse agonist effect ([7]; inverse agonist activity): 93%
